Experimental data as given in US20020042079A1, “METHODS AND AGENTS FOR MEASURING AND CONTROLLING MULTIDRUG RESISTANCE” (priority 1994, published 2002).
Entries after “also recorded” stand apart in the source; their conditions may differ.

Tests used:
[1] = tested on: MCF-7/ADR cells; test: Subcellular distribution of Adriamycin fluorescence (confocal microscopy); assay type: cell-based, human; conditions: for Adriamycin distribution after addition of agent: MCF-7/ADR, Monensin 5 μM, Bafilomycin A1 500 nM, concanomycin 100 nM, Tamoxifen 10 μM (50 μM in Example 3), verapamil 10 μM, cyclosporin 5 μM
Method: Adriamycin can be excited between 350 nm-550 nm and emits between 400 nm-700 nm.
Labeling of Cells with Adriamycin: Cells were loaded with Adriamycin (10 μM) added to the perfusion medium. […] For epi-fluorescence, the cells were excited with 450-490 nm filter and emission was monitored with a 510 nm longpass filter.

[2] = tested on: MCF-7/ADR cells; test: Cell viability assay of Adriamycin sensitivity (Hoechst 33258 DNA content); conditions: for effect on sensitivity of drug-resistant cells to Adriamycin: MCF-7/ADR (MCF-7adr) cells, agent co-incubated with adriamycin for 6 hours
Method: After 6 hours, the media was removed, the cells rinsed, and then fed with fresh media not containing drugs. […] Media was aspirated and the wells rinsed with Hanks Balanced Salt Solution (HBSS, phenol red free). The cells were sonicated in hypotonic media (0.1×HBSS) for 30 seconds. […] Calf thymus DNA was used for calibration.
Cell viability assays: The media was removed 60 hr. after plating the cells and replaced with fresh media supplemented with various concentrations of adriamycin (Calbiochem, CA) and monensin (solubilized in DMF 0.1%) (Sigma, St. Louis). After 6 hr the media was removed, the cells rinsed, and then fed with fresh media not containing drugs. […] Media was aspirated and the wells rinsed with Hanks Balanced Salt Solution (HBSS, phenol red free). The cells were sonicated in hypotonic media (0.1×HBSS) for 30 seconds. […] Calf thymus DNA was used for calibration.
Cell Viability Assays: Cell viability was assayed by plating cells at ˜1000 cells/well in 24 well plates (Falcon) in DME. […] The cells were fed daily for three days and then cell viability was quantified with two independent techniques: an assay of total DNA and an assay of volume of viable cells. […] Calf thymus DNA was used for calibration.
After three days cell viability was assayed.

[3] = lumenal pH of 6 and an external pH of 8; cited from earlier work
[4] = tested on: MCF-7/ADR cells; test: Organelle-specific pH measurements with targeted SNARF and FITC probes in living cells; assay type: cell-based, human; conditions: MCF-7/ADR cells; SNARF 70 kD dextran; Tamoxifen at 10 μM
Method: Organelle-specific pH measurements: The pH was measured in selective cellular compartments by targeting ratiometric pH probes to specific organelles. […] Using a Nikon epifluorescence microscope with a intensified CCD camera, the pH probe FITC was excited alternately at 450 nm and 490 nm and emission recorded with a 520/10 bandpass filter. […] In short, to calibrate the pH for the endosomal system, the chamber was perfused with 150 mM sodium buffers at pH of 5, 6 or 7 containing of monensin (20 μM) and nigericin (10 μM) for 5 minutes before recording the fluorescence. For the pH calibrations of cytosol and nucleoplasm, the cells were incubated in 140 mM potassium buffers at pH 6.0, 6.5, 7.0 and 7.5 containing nigericin (20 μM).
After endocytosis, the transferrin is transported through the endosomes and then recycled back to the surface without passage through the lysosomes.
pH in the lysosomes: The pH in the lysosomes was assayed both with light and electron microscopy. […] The pH was calibrated as described above. […] The cells were incubated one hour at room temperature, washed with several changes of PBS pH 7.4 containing 50 mM NH4Cl. […] The cells were embedded in LR White in gelatin capsules and baked at 60° C. for 24 hours in a vacuum oven, sectioned and incubated overnight at 4° C. with anti-DNP antibodies in 4% FBS, washed and incubated in gold (10 nm) labeled secondary antibodies for 2 hours. They were then stained and visualized under the electron microscope.
Cells were plated on polystyrene plates at 50% confluency. Twenty-four to thirty-six hours later, the medium was aspirated and the cells were covered with 50 μl of DME with SNARF-dextran (10 mg/ml). The cells were quickly scraped off the polystyrene and placed in pre-chilled tubes containing 1 ml DME without serum. The cells were harvested (100 g for 5 minutes), washed twice with pre-chilled DME, and plated on Lab-Tek chambers in DME with serum. The cells were allowed to recover for 24 hours prior to examination on a confocal microscope. The pH was calibrated from SNARF fluorescence as described above.
pH in the nucleus: The nucleoplasmic pH was probed by loading the cytosol with SNARF conjugated to a 10 kD dextran. This dextran is too large to cross cellular membranes, but can enter the nucleoplasm by diffusion across the nuclear pores. Confocal fluorescence microscopy was used to prepare optical sections through the cell allowing the fluorescence intensity of the nucleoplasm and cytoplasm to be quantified. The 10 kD SNARF-dextran was loaded into the cytosol and imaged using the same techniques for the 70 kD SNARF-dextrans (see above).

[5] = tested on: MCF-7/ADR cells; test: Acridine orange labeling of acidic compartments (confocal microscopy); assay type: cell-based, human; conditions: for red-orange acridine orange fluorescence of cytoplasmic organelles after addition of agent: MCF-7/ADR, 30 minutes, Monensin 5 μM, Bafilomycin A1 500 nM, concanomycin 100 nM, Tamoxifen 5 or 10 μM, verapamil 10 μM, cyclosporin A 10 μM
Method: Confocal fluorescence imaging of intracellular pH and acidic compartments: Acridine orange (2 μg/ml media; 4 mg/ml stock in water) was added directly to the chambers and the cells were incubated with the dye at 37° C. for 30 minutes. Cells in the presence of acridine orange were then examined at room temperature with an Insight Bilateral Laser Scanning Confocal Microscope (Meridian Instruments, Okemos, Mich.). […] Optical sections of the fluorescent sample were recorded at 0.5 micron intervals. […] The acetoxymethylester derivative of SNAFL-calcein (15 μg/ml) (Molecular Probes, Eugene, Oreg.) (a radiometric fluorescent probe for pH) was added to both MCF-7 and MCF-7adr cells. The ester linked fluorescent probe enters the cell passively where the esters are hydrolyzed by esterases located in the cytoplasm and intracellular vesicles. The SNAFL-calcein is then ionically trapped within the cytoplasm and vesicular compartments. […] These images were then compared to standard curves that were obtained in the following manner. […] Cells treated with monensin were exposed to the drug (10 μg/ml of media) for 30 minutes at 37° C. prior to labeling with SNAFL-calcein as described above. All cells were examined at room temperature.
The green and red emissions were collected using two photomultiplier tubes. […] Green emission was next passed through a 530 nm/30 nm bandpass filter and collected by the on-axis photomultiplier tube. Red emission was passed through a 610 nm longpass filter and collected by the 90° side photomultiplier tube.
Optical sections of the fluorescent samples were recorded at 0.5 micron intervals with a 60×oil immersion objective.

[6] = tested on: isolated microsomes of MCF-7/ADR cells; test: In vitro acidification of total microsomal preparation (acridine orange quenching); conditions: for rate of dissipation of the pre-existing pH gradient: added 10 minutes after ATP, Bafilomycin A1 100 nM, compared with tamoxifen
Method: Acidification of Cellular Microsomes: The acidification of cellular microsomes was assayed spectrophotometrically. Two different approaches were used for assaying acidification: Acidification of the total microsomal preparation using quenching of acridine orange and acidification of the recycling endosomes by monitoring the fluorescence from a microsomal preparation from cells that had previously endocytosed FITC-transferrin.
The homogenate was centrifuged twice for 10 minutes at 3000 g to remove unbroken cells and nuclei. The supernatant was layered over 20 ml of 0.5 M sucrose (20 mM HERES (pH 7.4), 1 mM DTT, 1 mM EDTA, 1×protease inhibitor mix) and 1 ml of 2 M sucrose and centrifuged for one hour at 100,000 g (Beckman Ti60 Rotor). Microsomes are collected at the 0.5 M and 2 M interface.
Acidic vesicles accumulate acridine orange to high concentrations resulting in the self quenching of the dye. This accumulation causes depletion of the acridine orange from the extra-vesicular space, and a decrease of the overall fluorescence of the sample. […] The sample was allowed to equilibrate by stirring for 30 minutes at 25° C. After 5 minutes of recording to establish baseline, 1 mM Tris-ATP was added to begin acidification (100 mM stock, titrated to pH 7.4 with 1 M Tris-base before use).

Row | SMILES | effect on sensitivity of drug-resistant cells to Adriamycin [2] | Adriamycin distribution after addition of agent [1] | red-orange acridine orange fluorescence of cytoplasmic organelles after addition of agent [5] | rate of dissipation of the pre-existing pH gradient [6] | other results
1 | COc1cccc2c1C(=O)c1c(O)c3c(c(O)c1C2=O)C[C@@](O)(C(=O)CO)C[C@@H]3O[C@H]1C[C@H](N)[C@H](O)[C@H](C)O1 [Adriamycin] | – | – | – | – | time for Adriamycin accumulation to reach a steady-state distribution ([1]; MCF-7 and MCF-7/ADR cells): approximately 60 minutes; cell death ([2]; 1 μM Adriamycin, absence of Tamoxifen, 6 hours exposure, assayed after three days): less than 20%; accumulation in a liposome [3]: approximately 100 fold
2 | N=C(N)NC(=O)c1nc(Cl)c(N)nc1N [amiloride] | functioned in a similar manner | – | – | – | –
3 | COc1ccc(CCN(C)CCCC(C#N)(c2ccc(OC)c(OC)c2)C(C)C)cc1OC (stereo not shown) [verapamil] | – | shifted Adriamycin from punctate cytoplasmic organelles to a diffuse cytoplasmic and nucleoplasmic distribution | loss of the red-orange cytoplasmic fluorescence | – | shift of cytosolic pH, more alkaline [4]: no measurable effect on cytosolic pH
4 | CO[C@@H]1C[C@@H](C[C@H]2CC[C@H](C)[C@H]([C@@H](C)C(=O)O)O2)O[C@]2(O[C@](C)([C@H]3CC[C@@](C)([C@@H]4O[C@@H]([C@H]5O[C@@](O)(CO)[C@H](C)C[C@@H]5C)C[C@@H]4C)O3)C[C@H]2C)[C@@H]1C [Nigericin] | functioned in a similar manner | – | – | significantly faster than tamoxifen | acridine orange staining of acidic vesicles after treatment ([5]; MCF-7adr (Examples 2, 3), nigericin 7.5 μM, tamoxifen 50 μM): eliminated fluorescent staining of both cytoplasmic vesicles and vesicles within the pericentriolar region; also recorded: immediate loss of orange/red fluorescence
5 | CO/C1=C\C(C)=C\[C@@H](C)[C@@H](O)[C@@H](C)C/C(C)=C/C=C/[C@H](OC)[C@@H]([C@@H](C)[C@@H](O)[C@H](C)[C@@]2(O)C[C@@H](O)[C@H](C)[C@@H](C(C)C)O2)OC1=O [Bafilomycin A1] | – | redistributed Adriamycin to the nucleoplasm; also recorded: substantially decreased in all cytoplasmic compartments and increased in the nucleoplasm | the punctate red labeling of acidic organelles was lost; also recorded: disappearance of punctate red-orange cytoplasmic fluorescence | dissipated the pH gradient at a much slower rate | acidification of pre-treated microsomes ([6]; Tamoxifen 8 μM, Bafilomycin A1 10 nM, monensin concentration not given): blocked acidification; acidification blocked ([6]; at one tenth of 100 nM): 95%
6 | C[C@H]1CCC/C=C/[C@@H]2C[C@H](O)C[C@H]2[C@H](O)/C=C/C(=O)O1 [Brefeldin A] | did not affect drug sensitivity | – | – | – | –
